Patent US20240041042A1, “1-(PYRIDYL)-5-AZINYLPYRAZOLE DERIVATIVES, AND THEIR USE FOR CONTROL OF UNDESIRED PLANT GROWTH” (Bayer Aktiengesellschaft, priority 2020, published 2024)
Where two headings read alike, the source gives them in different places.

How the values were obtained:
Assay type in all cases: in vivo
Zea mays (ZEAMX) [1] = details: pre-emergence, crop plant compatibility, in comparison to untreated controls
Procedure, shortened: (§1)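 Scoring: visual, % of untreated control, about 3 weeks after a pre-emergence application to the soil surface. Application used WP or EC formulations diluted in water with 0.5% additive at 600 l/ha; dosage levels are marked by suffixes a, b and c.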

Glycine max (GLXMA) = details: pre-emergence, crop plant compatibility, in comparison to untreated controls
Procedure, shortened: as §1

[2] = system: Triticum aestivum (TRZAS); details: pre-emergence, crop plant compatibility, in comparison to untreated controls
Procedure, shortened: as §1

Brassica napus (BRSNW) = details: crop plant compatibility, in comparison to untreated controls
Procedure, shortened: as §1

Oryza sativa (ORYSA) [3] = details: pre-emergence, crop plant compatibility, in comparison to untreated controls
Procedure, shortened: as §1

Zea mays (ZEAMX) [4] = details: crop plant compatibility, effect vs untreated controls
Procedure, shortened: (§2)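 Foliar application at the one-leaf stage: WP/EC formulation, 0.5% additive, 600 l/ha water. Greenhouse-grown in sandy loam. Endpoint is visual % injury relative to untreated controls at about 3 weeks.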

Oryza sativa (ORYSA) [5] = details: crop plant compatibility, effect in comparison to untreated controls
Procedure, shortened: as §2

[6] = system: Triticum aestivum (TRZAS); details: crop plant compatibility, 80 g/ha, effect vs untreated controls
Procedure, shortened: as §2

[7] = system: Pharbitis purpurea (PHBPU); assay: Post-emergence herbicidal action against PHBPU
Procedure, shortened: (§3)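 Post-emergence greenhouse spray, one-leaf stage, 600 l/ha water plus 0.5% additive; WP or EC formulations; application rates 320 g/ha or lower. Visual % damage vs untreated controls at ~3 weeks.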

Viola tricolor (VIOTR) [8] = assay: Post-emergence herbicidal action against VIOTR
Procedure, shortened: as §3

Avena fatua (AVEFA) [9] = assay: Pre-emergence herbicidal action against AVEFA; details: 320 g/ha, visual scoring after about 3 weeks vs untreated controls
Procedure, shortened: (§4)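 Herbicide applied to soil before seedling emergence, at 600 l/ha spray volume with 0.5% additive and rates up to 320 g/ha. Evaluation: visual percentage effect, about 3 weeks later, greenhouse-grown pots compared with untreated ones.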

Lolium rigidum (LOLRI) [10] = assay: Pre-emergence herbicidal action against LOLRI; details: dosage 320 g/ha
Procedure, shortened: as §4

[11] = system: Alopecurus myosuroides (ALOMY); assay: Post-emergence herbicidal action against ALOMY; details: 320 g/ha, visual rating about 3 weeks after treatment vs untreated controls (100% = plants have died, 0% = like control plants)
Procedure, shortened: as §3

Setaria viridis (SETVI) [12] = assay: Post-emergence herbicidal action against SETVI
Procedure, shortened: as §3

Avena fatua (AVEFA) [13] = assay: Post-emergence herbicidal action against AVEFA; details: visual rating about 3 weeks after treatment
Procedure, shortened: as §3

[14] = system: Matricaria inodora (MATIN); assay: Pre-emergence herbicidal action against MATIN; details: dosage 320 g/ha
Procedure, shortened: as §4

[15] = system: Matricaria inodora (MATIN); assay: Post-emergence herbicidal action against MATIN; details: dosage 320 g/ha
Procedure, shortened: as §3

[16] = system: Echinochloa crus-galli (ECHCG); assay: Pre-emergence herbicidal action against ECHCG; details: dosage 320 g/ha
Procedure, shortened: as §4

Setaria viridis (SETVI) [17] = assay: Pre-emergence herbicidal action against SETVI; details: dosage 320 g/ha
Procedure, shortened: as §4

[18] = system: Amaranthus retroflexus (AMARE); assay: Post-emergence herbicidal action against AMARE; details: 320 g/ha, visual rating about 3 weeks after treatment
Procedure, shortened: as §3

[19] = system: Abutilon theophrasti (ABUTH); assay: Post-emergence herbicidal action against ABUTH; details: 320 g/ha, visual rating about 3 weeks after treatment vs untreated controls (100% = plants have died, 0% = like control plants)
Procedure, shortened: as §3

Viola tricolor (VIOTR) [20] = assay: Pre-emergence herbicidal action against VIOTR; details: 320 g/ha, Viola tricolor
Procedure, shortened: as §4

Lolium rigidum (LOLRI) [21] = assay: Post-emergence herbicidal action against LOLRI; details: dosage 320 g/ha
Procedure, shortened: as §3

[22] = system: Amaranthus retroflexus (AMARE); assay: Pre-emergence herbicidal action against AMARE; details: visual scoring after about 3 weeks vs untreated controls
Procedure, shortened: as §4

Row | Structure (SMILES) | Pre-emergence action against ZEAMX in % (Zea mays (ZEAMX) [1]; 80 g/ha) | Pre-emergence action against ZEAMX in % (Zea mays (ZEAMX) [1]; 320 g/ha) | Pre-emergence action against GLXMA in % (Glycine max (GLXMA); 80 g/ha) | Pre-emergence action against GLXMA in % (Glycine max (GLXMA); 320 g/ha) | Pre-emergence action against TRZAS in % ([2]; 80 g/ha) | Pre-emergence action against BRSNW in % (Brassica napus (BRSNW); 80 g/ha) | Pre-emergence action against BRSNW in % (Brassica napus (BRSNW); 320 g/ha) | Pre-emergence action against ORYSA in % (Oryza sativa (ORYSA) [3]; 80 g/ha) | Pre-emergence action against ORYSA in % (Oryza sativa (ORYSA) [3]; 320 g/ha) | Post-emergence action against ZEAMX in % (Zea mays (ZEAMX) [4]; 80 g/ha) | Post-emergence action against ZEAMX in % (Zea mays (ZEAMX) [4]; 320 g/ha) | Post-emergence action against ORYSA in % (Oryza sativa (ORYSA) [5]; 80 g/ha) | Post-emergence action against ORYSA in % (Oryza sativa (ORYSA) [5]; 320 g/ha) | Post-emergence action against TRZAS in % [6] | Post-emergence action against PHBPU in % ([7]; dosage 320 g/ha) | Pre-emergence action against VIOTR in % (Viola tricolor (VIOTR) [20]) | other results
1 | CCOC(=O)COc1nn(-c2ncccc2OC)c(-c2ccc(F)nc2)c1I [Example I-386] | 0% | 0% | 0% | 0% | 20% | 0% | 0% | 0% | 20% | 0% | 0% | 0% | 0% |  |  |  | 
2 | O=C(O)CNC(=O)COc1nn(-c2ccnc(F)c2)c(-c2ccc(F)nc2)c1Br [III-26] | 0% | 0% | 0% |  | 0% | 0% |  | 0% | 0% | 20% |  | 10% | 20% | 20% |  |  | Pre-emergence action against TRZAS in % ([2]; 320 g/ha): 20%
3 | O=C(O)CSc1nn(-c2ccccn2)c(-c2ccc(F)nc2)c1Br [Example I-69] |  |  |  | 20% | 0% | 20% |  | 0% |  |  |  | 0% | 10% | 0% | 80% | 90% | Post-emergence action against PHBPU in % ([7]; dosage 80 g/ha): 80%; Post-emergence action against VIOTR in % (Viola tricolor (VIOTR) [8]; 80 g/ha): 80%; Post-emergence action against VIOTR in % (Viola tricolor (VIOTR) [8]; 320 g/ha): 80%; Pre-emergence action against AVEFA in % (Avena fatua (AVEFA) [9]): 80%; Pre-emergence action against LOLRI in % (Lolium rigidum (LOLRI) [10]): 80%; Post-emergence action against ALOMY in % [11]: 90%; Post-emergence action against SETVI in % (Setaria viridis (SETVI) [12]; dosage 80 g/ha): 80%; Post-emergence action against SETVI in % (Setaria viridis (SETVI) [12]; dosage 320 g/ha): 80%; Post-emergence action against AVEFA in % (Avena fatua (AVEFA) [13]; 80 g/ha): 80%; Post-emergence action against AVEFA in % (Avena fatua (AVEFA) [13]; 320 g/ha): 100%; Pre-emergence action against MATIN in % [14]: 90%; Post-emergence action against MATIN in % [15]: 80%; Pre-emergence action against ECHCG in % [16]: 90%; Pre-emergence action against SETVI in % (Setaria viridis (SETVI) [17]): 100%; Post-emergence action against AMARE in % [18]: 80%; Post-emergence action against ABUTH in % [19]: 80%; Post-emergence action against LOLRI in % (Lolium rigidum (LOLRI) [21]): 80%; Pre-emergence action against AMARE in % ([22]; 80 g/ha): 80%; Pre-emergence action against AMARE in % ([22]; 320 g/ha): 90%
4 | COC(=O)COc1nn(-c2ncccc2OC)c(-c2ccc(F)nc2)c1Cl [Example I-346] | 0% | 0% | 0% | 20% | 0% | 0% | 20% |  | 0% | 0% | 0% | 0% | 0% | 10% | 90% | 80% | 
